Here are results for six molecules from PMC13288994, “Identification and characterization of novel chikungunya virus polymerase inhibitors” (Journal of Virology, 2026).

The subject of series [1] is CHIKV-nLuc (181/25 strain). Description: microbe, parasite or virus in culture. The format is cell-based, Chikungunya virus. As to conditions: Chikungunya virus, 384-well format, read 20 h after infection, read-out: Normalized percent inhibition in primary screen.
The nature of series [2]: in vitro. As to conditions: human.
Series [3] relates to SINV-GLuc. Description: microbe, parasite or virus in culture. As to conditions: Sindbis virus, Vero C1008; VeroE6 cells; read-out: Antiviral potency (EC50 [µM]) SINV. The format is cell-based.
The test system of series [4] is SARS-CoV-2-nLuc. Description: microbe, parasite or virus in culture. The format is cell-based. As to conditions: Severe acute respiratory syndrome coronavirus 2; VeroE6-TMPRSS2 cells; read-out: Antiviral potency (EC50 [µM]) SARS-CoV-2.
Series [5] deals with HPIV3-nLuc. Description: microbe, parasite or virus in culture. The format is cell-based. As to conditions: Human respirovirus 3, Vero C1008; VeroE6 cells; read-out: Antiviral potency (EC50 [µM]) HPIV3.
Series [6] relates to RSV A2-L19F. The series can be described thus: microbe, parasite or virus in culture. The format is cell-based. As to conditions: human respiratory syncytial virus; Hep-2 cells; read-out: Antiviral potency (EC50 [µM]) RSV.
Series [7] can be described thus: in vitro. As to conditions: African green monkey.
Series [8] concerns VSV-nLuc. The series can be described thus: microbe, parasite or virus in culture. The format is cell-based. The conditions noted are these: Vesicular stomatitis virus, Vero C1008, read-out: Antiviral potency (EC50 [µM]) VSV.
For series [9], the system named is VEEV-TC83-nLuc. Description: microbe, parasite or virus in culture. The format is cell-based. As to conditions: Venezuelan equine encephalitis virus, Vero C1008, read-out: Antiviral potency (EC50 [µM]) VEEV.
For series [10], the system named is CHIKV replicon. The series can be described thus: microbe, parasite or virus in culture. The conditions noted are these: Chikungunya virus, U2OS, read-out: Antiviral potency (EC50 [µM]) CHKV replicon. Background: Replicon systems follow genome replication, usually without infectious particles.

Regarding `CC(C)(C)c1ccc(C(=O)On2c(-c3ccccc3F)nc3ccccc3c2=O)cc1` [GAP-1000864], the inhibition at 5 µM in [1] worked out at 91%. Further, the CC50 in series [2] and in series [7] was above 20 µM in each case. The EC50 in [3] is above 20 µM; in series [4], above 20 µM; in series [5], above 20 µM; in [6], above 10 µM; in [8] it was above 20 µM.
Regarding `CCN1CCc2nc3sc(C(=O)c4ccccc4)c(C)c3cc2C1` [GAP-1022776], the inhibition at 5 µM in [1] was 85.7%. The CC50 came out at 19.2 µM in series [2] and 25.2 µM in series [7]. Also, the EC50 in [3] was above 20 µM; in [4], above 20 µM; in series [5] it was above 20 µM; in series [6], above 10 µM; in series [8] it was above 20 µM.
In the case of `O=C(CSc1c2c(nc3cc(Cl)ccc13)CCCC2)Nc1ccc2c(c1)OCCO2` [GAP-1022901], in [1], the inhibition at 5 µM was 82.1%. The CC50 in series [2] and in [7] was above 20 µM each time. Besides, the EC50 is above 20 µM in [3]; above 20 µM in [4]; above 20 µM in series [5]; above 10 µM in series [6]; above 20 µM in series [8].
Turning to `Cc1ccc(NC(=O)c2oc3ccccc3c2NC(=O)c2nc(S(C)(=O)=O)ncc2Cl)cc1` [GAP-1027276], the inhibition at 5 µM in [1] turned out to be 98.2%. In addition, the CC50 is 20 µM in [2] and above 20 µM in series [7]. For the same molecule, the EC50 in [3] was above 20 µM; in series [4], above 20 µM; in series [5], above 20 µM; in series [6] it was above 10 µM; in series [8] it was above 20 µM.
In the case of `CCS(=O)(=O)c1ncc(Cl)c(C(=O)Nc2nnc(C(C)C)s2)n1` [GAP-1027282], the inhibition at 5 µM in series [1] worked out at 97.2%. Also, the CC50 was 16.7 µM in [2] and above 20 µM in series [7]. In addition, the concentration giving a half-maximal response (EC50) in [3] was above 20 µM; in series [4] it was above 20 µM; in [5], above 20 µM; in [6], above 10 µM; in [8], above 20 µM.
On to `CCNc1cc(C)nc(N2CCN(C(=O)c3cccc4ccccc34)CC2)n1` [GAP-1066658], for which the EC50 in [9] was 75.8 µM; in series [3], above 100 µM; in series [4] it was around 100 µM; in [5], around 100 µM; in series [6], above 100 µM; in [8], 60.9 µM. The EC50 in series [10] was 0.61 µM. For the same molecule, the inhibition at 5 µM in series [1] is 95.4%. For the same molecule, the values for the CC50 in series [2] and in series [7] were 61.5 µM and 88.5 µM, respectively.

One may read the inhibition as the relative decrease from the control value, in per cent. A word on the EC50: it is the midpoint of the concentration-response curve.
